Experimental data from paper PMC10844371 (Diabetologia, 2023).

Tests used:
human pancreatic islets = experiment: Glucagon secretion in human islets (ELISA); format: cell-based
Procedure: Human pancreatic islets were isolated (with ethical approval and clinical consent) as previously described. Islets from the pancreases of 18 healthy donors and five donors with type 2 diabetes were used (see electronic supplementary material [ESM] Table 1; ESM Human islets checklist).
Mouse islets were used acutely, except for studies with PTX, wherein islets were treated overnight with the toxin. Human islets were maintained in culture for up to 48 h in RPMI medium containing 10% (vol./vol.) FCS, 1% (vol./vol.) penicillin/streptomycin and 5 mmol/l glucose. Experiments were conducted as previously described. Islets were incubated in 0.3 ml EC1 or EC2 media (ESM Table 2) supplemented with glucose and other reagents as indicated. Glucagon was determined by ELISA (Mercodia).
All data are reported, unless otherwise stated, as mean values ± SEM for the indicated number of experiments using islets from multiple mice. For hormone release studies, islets were isolated and pooled from 4–16 mice. These islets were then subdivided into groups of 12–20 size-matched islets. Each unique set of islets counted as an experiment with the experiments repeated on 2–4 days. Similarly, each unique group of human islets was treated as an experiment. […] In the Ca^2+ imaging and granule docking experiment, each cell represents an experiment making sure that cells from multiple donors/animals were used. For the in vivo experiments and the perfused pancreas, each mouse count represents an experiment. For two groupings, a t test was conducted. For multiple comparisons, one-way ANOVA was conducted. All statistical tests were performed using Graphpad Prism (version 9.1.0; graphpad.com). It was ascertained that the data were normally distributed.

P/Q-type Ca^2+ channels = experiment: [Ca2+]i imaging of depolarisation-evoked Ca2+ entry in alpha cells (Gcg-GCaMP6f islets); format: cell-based, mouse; details: 10 pmol/l, 70 mmol/l [K+]o, isradipine 10 μmol/l; n=139 cells from 4 mice
Procedure: For live-cell cytoplasmic free Ca^2+ concentration ([Ca^2+]i) imaging experiments, Gcg-GCaMP6f islets were immobilised to a poly-L-lysine-coated coverslip fixed in a custom-built imaging chamber filled with EC3 (ESM Table 2). [Ca^2+]i was measured in islets from mice expressing GCaMP6f in alpha cells. [Ca^2+]i imaging experiments were then performed using an inverted LSM 510 confocal microscope (Zeiss) controlled with ZEN Black (Zeiss), using a ×40/1.3 oil immersion objective. Time-lapse images were collected every 0.98 s with a frame size of 256×256 pixels, with the bath solution (EC3) perfused at a rate of 0.4 ml/min and heated to 37°C. GCaMP6f was excited by an argon laser (488 nm) and emission was collected at 510 nm.
[Ca^2+]i imaging videos were analysed using the Fiji imaging processing package. The mean fluorescence (F) of each region of interest was normalised to baseline signal (F0) and expressed as F/F0 before exporting into ClampFit (version 10.7; Molecular Devices, CA, USA), where baseline was corrected and AUC was calculated.

[1] = mouse, in vivo, ip
Procedure: C57Bl6N mice were fasted for 5 h prior to the ITTs. GLP-1(9–36) (100 µg/kg body weight) was injected intraperitoneally before or with insulin as indicated. The relative high dose of GLP-1(9–36) was used because of high basal levels of the peptide. In the control experiments, mice were injected with the saline solvent (154 mmol/l NaCl). […] Total GLP-1 was measured by ELISA (81508; Crystal Chem, Zaandam, the Netherlands; CV<10%).

CC[C@H](C)[C@H](NC(=O)[C@H](Cc1ccccc1)NC(=O)[C@H](CCC(=O)O)NC(=O)[C@H](CCCCN)NC(=O)[C@H](C)NC(=O)[C@H](C)NC(=O)[C@H](CCC(N)=O)NC(=O)CNC(=O)[C@H](CCC(=O)O)NC(=O)[C@H](CC(C)C)NC(=O)[C@H](Cc1ccc(O)cc1)NC(=O)[C@H](CO)NC(=O)[C@H](CO)NC(=O)[C@@H](NC(=O)[C@H](CC(=O)O)NC(=O)[C@H](CO)NC(=O)[C@@H](NC(=O)[C@H](Cc1ccccc1)NC(=O)[C@@H](NC(=O)CNC(=O)[C@@H](N)CCC(=O)O)[C@@H](C)O)[C@@H](C)O)C(C)C)C(=O)N[C@@H](C)C(=O)N[C@@H](Cc1c[nH]c2ccccc12)C(=O)N[C@@H](CC(C)C)C(=O)N[C@H](C(=O)N[C@@H](CCCCN)C(=O)NCC(=O)N[C@@H](CCCNC(=N)N)C(N)=O)C(C)C [GLP-1(9–36)]
inhibition of glucagon secretion (human pancreatic islets; human islets, 10 pmol/l, 1 mmol/l glucose): ~ 50%
glucagonostatic effect (human pancreatic islets; human islets, 6 mmol/l glucose): exerted a glucagonostatic effect
glucagonostatic effect (human pancreatic islets; human islets, 20 mmol/l glucose): not at 20 mmol/l glucose
suppression of glucagon release in islets from donors with type 2 diabetes (human pancreatic islets; islets from donors with type 2 diabetes): loss
reduction of depolarisation-induced P/Q-type Ca2+ channel-mediated Ca2+ entry (P/Q-type Ca^2+ channels): 34±4%
time for which plasma GLP-1 remained at >100 pmol/l [1]: > 45 min
